Entries after “also recorded” stand apart in the source; their conditions may differ.
Columns and labels:
[1] = system: nucleotide excision repair (NER); conditions: previously found, earlier publications; cited from earlier work
[2] = system: nucleotide excision repair (NER); assay: Host cell reactivation (HCR) assay; type: cell-based, human; conditions: NHLF treated with Acr for 1 h, BPDE-modified luciferase plasmid
Experimental: (§1) Determination of the Effect of Acr Treatment on DNA Repair. Host cell reactivation (HCR) and in vitro DNA repair synthesis assays were performed as previously described to determine the effects of Acr treatment on DNA repair in human cells (Feng, Z., Hu, W., & Tang, M.-s. (2004) Proc. Nat. Acad. Sci. 101, 8598-8602; Feng, Z., Hu, W., Marnett, L., & Tang, M.-s. Mutat. Res. in press).

[3] = system: nucleotide excision repair (NER); assay: In vitro DNA damage-specific repair synthesis assay; type: biochemical, human
Experimental: as §1

supF gene = assay: supF shuttle vector pSP189 mutation assay in NHLF; type: cell-based, human; set-up: dose or concentration left out as unconfirmed; conditions: pSP189 modified with Acr, replicated in NHLF
Experimental: Determination of Mutations Induced by Acr-DNA Adducts. The methods used for mutation detection and for mutational spectrum determination were the same as previously described (Feng, Z., Hu, W., Amin, S., & Tang, M.-s. (2003) Biochemistry 42, 7848-7854). Briefly, shuttle vector pSP189 plasmid DNA was modified with different concentrations of Acr, and transfected into NHLF for replication. Plasmids were recovered 72 h after transfection, and replicated plasmids were then transformed into MB7070 E. coli indicator cells. The supF gene in plasmids isolated from mutant white colonies were then sequenced.

[4] = rats; cited from earlier work

Row | Compound | effect on cellular NER capacity [1] | effect on repair of BPDE-DNA adducts (NER capacity) [2] | inhibitory effect, cell lysates directly treated versus whole cells treated ([3]; NHLF) | effect on repair of BPDE-DNA adducts (NER capacity) ([3]; NHLF cell extracts, BPDE-modified pUC18) | G to T transversions among base substitution mutants sequenced (supF gene) | mutation frequency (supF gene) | share of G to T transversions among base substitutions (supF gene) | bladder tumour occurrence [4]
1 | CCCCCC(O)/C=C/C=O (stereo not drawn) [4-HNE] | greatly reduce cellular nucleotide excision repair (NER) capacity |  |  |  |  |  |  | 
2 | C=CC=O [Acr, Acrolein] |  | greatly inhibit NER for BPDE-induced DNA damage | much more pronounced in cell lysates directly treated with Acr than whole cells treated with Acr | greatly inhibit NER for BPDE-induced DNA damage | 28 out of 55 | 120×10^−4 | more than 50% | greatly enhances urinary bladder papilloma occurrence in rats; also recorded: cause bladder cancer in rats
3 | O=CCC=O [MDA] | greatly reduce cellular nucleotide excision repair (NER) capacity |  |  |  |  |  |  | 

— US20100196275A1, “Methods and products for neutralizing the harmful effects of combustion products” (priority 2006, published 2010)
